The subject of data set [1] is adipose stromal cells. Description: Chondrogenic differentiation of stem cells in differentiation medium supplemented with ROCK inhibitor. In kind it is cell-based, human. The conditions noted are these: for Cell differentiation noticed / started, time after initial treatment with ROCK inhibitor: MesenCult-ACF Chondrogenic Differentiation medium supplemented with ROCK inhibitor, dose dependent; for Induction of stem cell differentiation: differentiation medium supplemented with ROCK inhibitor. As for the experimental part: (§1) Chondrocyte Cell Sheet: ASC were cultured with RoosterNourish™-MSC-XF, until the cells reached confluence. From that day, ASC were cultured with MesenCult™-ACF Chondrogenic Differentiation Kit (Stem Cell, Vancouver, Canada). The culture media was replaced every 2 days, up to X days from the initial seeding day depending on the technique used to engineer the cell sheet.
(§2) One of two techniques was used to complete the engineering process: 1) To stop centrifuge tension, the edges of the cell sheets were cut, and the cell sheet was left resting in almost absence of culture media (MesenCult™-ACF Chondrogenic Differentiation) to let the cell sheets' edges attached to the cell culture surface, for 20 minutes. The differentiation culture media (MesenCult™-ACF Chondrogenic Differentiation) was added to the cell culture dish and the chondrocyte cell sheet was engineered up to 21 days after the initial day of differentiation. 2) ROCK inhibitor Y-27632 at 10 μM or ROCK inhibitor Y-33075 at 1 μM were used from the first day of differentiation.

The subject of data set [2] is adipose stromal cells. Description: Engineering of chondrocyte cell sheets with ROCK inhibitor (detachment, time of formation). In kind it is cell-based, human. The settings on record: for Success in engineering the chondrocyte multilayer cell sheets: ROCK 1 and 2 inhibitors; for Detachment of the cell sheets / Time in which cell sheets were formed: Y-27632 at 10 μM or Y-33075 at 1 μM from the first day of differentiation; for Reduction of the time of differentiation: Y-27632 at 10 μM or Y-33075 at 1 μM, versus 21 days with edge cutting. On the procedure:
as §1, §2
Undifferentiated ASCCS were engineered in 10 days, using a chemically defined culture media. Differentiated ASCCS into Chondrocyte (treated with ROCK inhibitor from 1 to 20 μM), […] and osteoblast were also engineered using chemically defined and animal free culture media, in 14, 21 and 14 days, respectively. The transmittance of the ASCCS were measured over time from the time the cells reached confluence until the cell sheets were harvested.

In data set [3] the test system is adipose stromal cells. Description: Toxicity of ROCK inhibitor for the cells during differentiation. In kind it is cell-based. The conditions noted are these: dose response.

“Also recorded” adds a separate entry of the source.

Consider `C[C@@H](N)c1ccc(C(=O)Nc2ccnc3[nH]ccc23)cc1` [Y-33075, (R)-4-(1-aminoethyl)-N-(1H-pyrrolo[2,3-b]pyridin-4-yl)benzamide], for which the “Cell differentiation noticed / started, time after initial treatment with ROCK inhibitor” value in the data set with adipose stromal cells [1] was found to be 1 days. Moreover, in the data set with adipose stromal cells [2], the “Success in engineering the chondrocyte multilayer cell sheets” value is “used with success”, the “Detachment of the cell sheets” value is reported as “didn't detach”, the “Time in which cell sheets were formed” value is 2 weeks and the “Reduction of the time of differentiation” value was 33%.
The corresponding values for `C[C@@H](N)[C@H]1CC[C@H](C(=O)Nc2ccncc2)CC1` [Y-27632, (1R,4r)-4-((R)-1-aminoethyl)-N-(pyridin-4-yl)cyclohexane-1-carboxamide] are 2 days, “used with success”, “didn't detach”, 2 weeks and 33%.
As to `CC(C)NC(=O)COc1cccc(-c2nc(Nc3ccc4[nH]ncc4c3)c3ccccc3n2)c1` [Belumosudil, 2-[3-[4-(1H-Indazol-5-ylamino)quinazolin-2-yl]phenoxy]-N-propan-2-ylacetamide], in the data set with adipose stromal cells [1], the “Induction of stem cell differentiation” value is on record as “failed to induce stem cell differentiation; also recorded: does not induce cell differentiation”. The “Toxicity for the cells” value with adipose stromal cells [3] is listed as “toxic for the cells in a dose response, inducing cell death”.
In the case of `Cc1cncc2cccc(S(=O)(=O)N3CCCNC[C@@H]3C)c12` [H-1152, (S)-4-methyl-5-((2-methyl-1,4-diazepan-1-yl)sulfonyl)isoquinoline], in the data set with adipose stromal cells [1], the “Cell differentiation noticed / started, time after initial treatment with ROCK inhibitor” value was found to be 2 days; the “Induction of stem cell differentiation” value was “induced the cell differentiation but it is less efficient than Y-27632 and Y-33075”.

Values taken from patent US20240417689A1, “ENGINEERING OF STRATIFIED CELL SHEETS USING MESENCHYMAL STEM CELLS” (Emmaus Life Sciences, Inc, priority 2021, published 2024).
